These molecules were tested against T1, human TGR5 (Homo sapiens, UniProt Q8TDU6) (assay: Cell-based TGR5 assay (cAMP generation, HTRF)). Conditions: HEK293 cells stably transfected with human TGR5; cAMP by HTRF; 30 minutes at 37° C.; read-out: pEC50 Human TGR5 (converted).
T1 construct: expressed in transfected cells; host or cells: HEK293
T1 sequence (Q8TDU6 1-330): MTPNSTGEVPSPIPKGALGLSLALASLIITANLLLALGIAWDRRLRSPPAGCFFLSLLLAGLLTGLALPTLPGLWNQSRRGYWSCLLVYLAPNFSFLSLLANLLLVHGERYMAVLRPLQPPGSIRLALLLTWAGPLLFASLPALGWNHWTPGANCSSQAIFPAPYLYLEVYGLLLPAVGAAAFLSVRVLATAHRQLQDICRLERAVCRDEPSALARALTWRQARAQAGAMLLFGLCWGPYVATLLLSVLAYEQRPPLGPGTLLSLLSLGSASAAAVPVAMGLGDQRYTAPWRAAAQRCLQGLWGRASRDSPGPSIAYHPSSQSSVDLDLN
In short: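 First, compounds in 3-fold serial dilution were placed in HBSS with 10 mM HEPES pH 7.4 and 0.5 mM IBMX. Next, human TGR5-expressing HEK293 cells were added and incubated 30 min at 37° C. Finally, cAMP was detected by HTRF and pEC50 derived by logistic fitting.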

| Structure (SMILES) | EC50 |
| --- | --- |
| Clc1ccc(Cl)c(CNC2(c3cnccc3-c3ccccc3OC3CCC3)CC2)c1 [Compound I-5, 1-[4-(2-cyclobutoxyphenyl)pyridin-3-yl]-N-[(2,5-dichlorophenyl)methyl]cyclopropan-1-amine] | 0.126 to 1 µM |
| Cc1ccc(C(C)CCCNC(=O)[C@@H](O)[C@@H](O)[C@H](O)[C@@H](O)CO)cc1CNC1(c2cnccc2-c2ccccc2OC2CC2)CC1 (stereo partly drawn) [Compound I-299, (2S,3S,4R,5S)-N-(4-{3-[({1-[4-(2-cyclopropoxyphenyl)pyridin-3-yl]cyclopropyl}amino)methyl]-4-methylphenyl}pentyl)-2,3,4,5,6-pentahydroxyhexanamide] | < 0.1 µM |
| CN(CCCCSc1ccc(Cl)c(CNC2(c3cnccc3-c3ccccc3OC3CC3)CC2)c1)C(=O)[C@@H](O)[C@@H](O)[C@H](O)[C@@H](O)CO [Compound I-506, (2S,3S,4R,5S)-N-[4-({4-chloro-3-[({1-[4-(2-cyclopropoxyphenyl)pyridin-3-yl]cyclopropyl}amino)methyl]phenyl}sulfanyl)butyl]-2,3,4,5,6-pentahydroxy-N-methylhexanamide] | < 0.1 µM |
| O=CN(CCCCc1cc(Cl)c(COC2(c3cnccc3-c3ccccc3OC3CC3)CC2)cc1Cl)C[C@H](O)[C@@H](O)[C@H](O)[C@H](O)CO [Compound I-80, N-(4-(2,5-dichloro-4-((1-(4-(2-cyclopropoxyphenyl)pyridin-3-yl)cyclopropoxy)methyl)phenyl)butyl)-N-((2S,3R,4R,5R)-2,3,4,5,6-pentahydroxyhexyl)formamide] | < 0.1 µM |
| O=C([C@@H](O)[C@@H](O)[C@H](O)[C@@H](O)CO)N(CCCCSc1ccc(Cl)c(COC2(c3cnccc3-c3ccccc3OC3CC3)CC2)c1)CC1CCOCC1 [Compound I-516, (2S,3S,4R,5S)-N-(4-{[4-chloro-3-({1-[4-(2-cyclopropoxyphenyl)pyridin-3-yl]cyclopropoxy}methyl)phenyl]sulfanyl}butyl)-2,3,4,5,6-pentahydroxy-N-(oxan-4-ylmethyl)hexanamide] | < 0.1 µM |
| Cc1ccc(SCCCCN(CCCS(C)(=O)=O)C(=O)[C@@H](O)[C@@H](O)[C@H](O)[C@@H](O)CO)cc1CNC1(c2cnccc2-c2ccccc2OC2CC2)CC1 [Compound I-548, (2S,3S,4R,5S)-N-[4-({3-[({1-[4-(2-cyclopropoxyphenyl)pyridin-3-yl]cyclopropyl}amino)methyl]-4-methylphenyl}sulfanyl)butyl]-2,3,4,5,6-pentahydroxy-N-(3-methanesulfonylpropyl) hexanamide] | 0.126 to 1 µM |

More lines, now with the values ahead:

| EC50 | Structure (SMILES) |
| --- | --- |
| 1.26 to 10 µM | Cc1ccc(CCCCCNC(=O)NC[C@H](O)[C@@H](O)[C@H](O)[C@H](O)CO)nc1CNC1(c2cnccc2-c2ccccc2OC2CC2)CC1 [Compound I-707] |
| < 0.1 µM | Cc1cc(COC2(c3cnccc3-c3ccccc3OC3CC3)CC2)c(Cl)cc1CCCCN(CCOCCO)C(=O)NC[C@H](O)[C@@H](O)[C@H](O)[C@H](O)CO [Compound I-117, 1-{4-[5-chloro-4-({1-[4-(2-cyclopropoxyphenyl)pyridin-3-yl]cyclopropoxy}methyl)-2-methylphenyl]butyl}-1-[2-(2-hydroxyethoxy)ethyl]-3-[(2S,3R,4R,5R)-2,3,4,5,6-pentahydroxyhexyl]urea] |
| < 0.1 µM | Cc1ccc(SCCCCN(CCS(C)(=O)=O)C[C@H](O)[C@@H](O)[C@H](O)[C@H](O)CO)cc1COC1(c2cnccc2-c2ccccc2OC2CC2)CC1 [Compound I-615, (2R,3R,4R,5S)-6-[(4-{[3-({1-[4-(2-cyclopropoxyphenyl)pyridin-3-yl]cyclopropoxy}methyl)-4-methylphenyl]sulfanyl}butyl)(2-methanesulfonylethyl)amino]hexane-1,2,3,4,5-pentol] |
| < 0.1 µM | CN(CCCCNC(=O)NC[C@H](O)[C@@H](O)[C@H](O)[C@H](O)CO)S(=O)(=O)c1cc(CNC2(c3cnccc3-c3ccccc3OC3CC3)CC2)c(Cl)cc1F [Compound I-474, 1-(4-{N-methyl4-chloro-5-[({1-[4-(2-cyclopropoxyphenyl)pyridin-3-yl]cyclopropyl}amino)methyl]-2-fluorobenzenesulfonamido}butyl)-3-[(2S,3R,4R,5R)-2,3,4,5,6-pentahydroxyhexyl]urea] |

— patent publication US12084472B2 (Ardelyx, Inc., priority 2015, dated 2024)
